The values that follow are results of earlier work, collected in patent publication US20260083720A1 (Vyluma Inc., priority 2022, published 2026).

For data set [1], the system named is myopia progression. The following applies: Hieda et al., atropine group.
Data set [2] relates to myopia progression. The following applies: Wei et al., atropine-placebo group.
Data set [3] deals with myopia progression. The following applies: Chan, 0.01% concentration, period of 6 months.
Data set [4] deals with myopia progression. The following applies: Yam et al., atropine at 0.01%; dose-dependent between 0.05% and 0.01%.

Consider `CN1[C@@H]2CC[C@H]1C[C@@H](OC(=O)C(CO)c1ccccc1)C2` (some centres unmarked) [atropine], for which the “mean AL changes at 24 mo” value in the data set with myopia progression [1] (placebo 0.77) is listed as 0.63 mm. Moreover, the “Mean SER changes at 24 mo” value in the data set with myopia progression [1] (placebo −1.48) is −1.26 D. Besides, the “mean myopia progression after 24 months” value in the data set with myopia progression [2] is recorded as −1.26 D. For the same molecule, the “changes in mean SER and AL” value in the data set on myopia progression [3] is “can be reduced”. Also, the “effect of atropine on myopia progression” value with myopia progression [4] is given as “only relatively small effects”.
